Measurements reported in article PMC12114444, “Biochemical Characterization and Polyester-Binding/Degrading Capability of Two Cutinases from Aspergillus fumigatus” (Microorganisms, 2025).

System: AfCutB
Conditions: 30 °C, 5 min; standard assay 0.05 M Tris-HCl pH 8.5 (results text: optimal conditions, optimum pH 9.0)

CCCC(=O)Oc1ccc([N+](=O)[O-])cc1 [p-nitrophenyl butyrate]
Km: 6.29 mM
